Patent US10919889B2, “Chiral heterocyclic compound with hedgehog pathway antagonist activity, method and use thereof” (SUZHOU KINTOR PHARMACEUTICALS, INC., priority 2016, dated 2021)
Values joined by “and” are separate entries in the source; they are usually repeats but may differ in a detail not shown here. Equal values may be shown once. Read-outs that look alike come from different tables or passages of the source.

Columns and labels:
[1] = tested on: Hh signaling pathway; assay: NIH3T3-GRE-Luc luciferase reporter assay (primary assay); type: cell-based
Description: NIH3T3 cells (CRL-1658, ATCC) were maintained in DMEM (Gibico) supplemented with 10% FBS (Hyclone). GRE-Luc plasmid was generated by inserting 8×Gli-1 responsive element (GRE) into the multiple cloning site of pGL4.26 vector (Promega). NIH3T3-GRE-Luc reporter cell line was established by hygromycin (Invitrogen) selection after transfected with GRE-Luc luciferase reporter plasmid. Single clones were validated by the induction of luciferase by recombinant sonic hedgehog (sHh) protein or small molecule agonist SAG (ABIN629346). Selected clone was used to monitor the Hh signaling.
(§1) The NIH3T3-GRE-Luc cells were maintained in complete culture medium (DMEM with 4 mM L-Gln, 1.5 g/L sodium bicarbonate and 4.5 g/L glucose supplemented with 100 μg/mL hygromycin and 10% FBS). When confluent, the cells were trypsinized and re-suspended in assay medium (0.5% serum-containing DMEM). After 100 µL/well of cells suspension was added to the 96-well-plate (Final cell concentration is 15,000 cells/well), cells were cultured for additional 48 hours before adding the compounds.
Compounds were serially diluted in DMSO and further diluted with assay medium. In an embodiment, 10 nM SAG was added in assay medium as the agonist of Hh signaling. After the compounds and agonist were prepared, the medium was removed carefully. 100 μL of assay medium containing compound and agonist was added to the cell with care. Cell plates were incubated at 37° C. for additional 48 hours.
(§2) Following the 48 hours incubation, 40 μL/well of luciferase media (Brigh-Glo, Promega) was added to the cells. The plate was incubated at room temperature for 5 minutes under gentle shaking. Luminescence signal was measured with plate reader (PHERAstar FS, BMG). The potency of compounds was calculated based on the inhibition of luminescence signaling.
NIH3T3 cells (CRL-1658, ATCC) were maintained in DMEM (11965, Gibico) supplemented with 10% FBS (Hyclone). GRE-Luc plasmid was generated by cloning 8×Gli-1 responsive element (GRE) into the MCS of pGL4.26 (Promega). NIH3T3-GRE-Luc reporter cell lines were established by hygromycin (Invitrogen) selection after transfection with GRE-Luc luciferase reporter plasmid. Single clones were validated for the assay quality with N-terminal fragment of recombinant sonic hedgehog protein or small molecule agonist SAG (ABIN629346). Selected clone were used to monitor the Hh signaling.
as §1, with “ug/ml” for “μg/mL”, “resuspended” for “re-suspended”, “ul/well” for “µL/well”
Compounds were serially diluted in DMSO and further diluted with assay medium. In an embodiment, 10 nM SAG was added in assay medium as the agonist of Hh signaling. After the compounds and agonist were prepared, carefully remove medium (Aspirate the medium with pipette instead of vacuum, or else the NIH3T3 cells monolayer will be detached). 100 ul of assay medium containing compound or agonist was added to the cell with care. Cell plates were incubated at 37 degree for additional 48 hours.
as §2, with “ul/well” for “μL/well”, “min” for “minutes”, “basing” for “based”

[2] = tested on: Hh signaling pathway; conditions: cited from earlier work
[3] = Rat pharmacokinetics experiments; type: in vivo, Sprague-Dawley rats; conditions: for AUC(0-t): read-out: Area under the curve AUC0-24 h; for bioavailability: po
Experimental: Male Spraguee-Dawley rats (body weight: 220 g˜250 g) were purchased from Slac Laboratory Animals (Shanghai). […] Blood samples were taken through the posterior orbital vein and the blood samples were placed in a tube containing EDTA (as an anticoagulant) and stored in a −80° C. environment after centrifugation with a refrigerated centrifuge. Blood sample (at an amount of folds of 25 μL) was taken and cold acetonitrile containing the internal standard (100 μL) was added. Sample was centrifuged for 10 minutes to precipitate the plasma protein. Finally, supernatant (10 μL) was injected into the LC-MS/MS system for analysis.
LC-MS/MS analysis method: All samples were analyzed by LC-MS/MS system of API4000 QTRAP mass spectrometer equipped with LC-20AD and CBM-20A controllers, DGU-20A solvent degasser and SIL-20A autosampler (Japan Shimadzu, Colombia, Md., USA). A Bona Aeger Venusil XBP C18 column (50×2.1 mm; filler 5 micron particle size) was used for HPLC separation. The column temperature was maintained at 40° C. The flow rate was 0.3 mL/min and the total run time was 6 minutes.
For the quantification of MS/MS, the API4000 QTRAP mass spectrometer was operated in an ESI positive mode with multiple reaction monitoring (MRM). All compounds and internal standards were set to be monitored during a residence time of 100 milliseconds. The other MS/MS parameters were set as follows: atomization gas (GS1) at 30 psi, 551b turbine pressure, 4500V ion spray voltage, 500° C. ion source temperature. For the selected ion transitions, each analyte was tested at the optimal sensitivity of the cluster potential (DP) and the collision energy (CE). Finally, the data was collected and processed using AB SCIEX Analysist 1.5.2 data collection and integration software.
Test subjects, Sprague-Dawley rats (body weight from about 220 g to about 250 g), were purchased from Slac Laboratory Animals (Shanghai, China). All compounds tested at 1 mg/mL concentration, either intravenous injected at a tail vein at 1 mL/kg dosage for one group of test subjects or administered orally at a dose of 10 mL/kg in another group of test subjects. Then aliquots of blood samples were collected by retro-orbital venous plexus puncture at time intervals after the injection/administration. The blood samples were kept in tubes containing EDTA, centrifuged and stored at −80° C. before analysis. Blank plasma was collected by the same method before rats were treated with compounds. Plasma samples for analysis were obtained by removing about 25 μL from the saved blood sample; adding cold acetonitrile (about 100 μL) as internal standard; centrifuged for 10 minutes to precipitate plasma proteins; and collect about 10 μL of the upper clear solution for analysis done by an LC-MS/MS system.
All samples were analyzed by an API 4000 QTRAP® LC/MS/MS System equipped with Shimadzu LC-20AD pump, Shimadzu CBM-20A controller, SIL-20A autosampler and DGU-20A degasser (Shimadzu, Columbia, Md., USA). A Venusil XBP C18 HPLC Column (2.1×50 mm, 5 μm) (Bonna-Agela Technologies) was used for HPLC separation at isocratic temperature of 40° C. Flow rate was kept at 0.3 mL/min and the total run time was kept at 6 minutes.
Quantification by MS/MS is done using the above-described API 4000 QTRAP mass spectrometer equipped with multiple reaction monitoring (MRM) and positive electrospray ionization (ESI+) modes. All compounds and internal standard were detected at […] of about 100 milliseconds. Other parameters for MS/MS are shown below: Ion Source Gas 1 (GS1) at 30 psi, turbine pressure at 55 pounds, ion spray voltage at 4500 V, and ion source temperature at 500° C. MRM measurements of the analytes were performed using declustering potential (DP) and […] values optimized for each analyte. Finally, all of the operations, the acquisition and analysis of data were controlled by Analyst (version 1.5.2, AB Sciex, USA).

[4] = Oxidative metabolism found in pharmacokinetic studies; conditions: benzylic oxidation at the C-5 methylene group
[5] = IC50 value of Vismodegib over that of the tested compound in the same assay
[6] = primary assay, Table 5, read-out: SMO IC50
[7] = previous patent, read-out: IC50 of NIH3T3-GRE-Luc, reported in WO2014113191A1

## Cc1cnc(-c2cc(N3CCc4nc(NC5CC5)ncc4[C@H]3C)ncc2Cl)c(C)c1 [Compound B4, (R)-6-(5′-Chloro-3,5-dimethyl-[2,4′-bipyridin]-2′-yl)-N-cyclopropyl-5-methyl-5,6,7,8-tetrahydropyrido[4,3-d]pyrimidin-2-amine]
[1]; [5]
  Ratio: 8.1
[1]; [6]
  IC50: 2.2 nM

## CS(=O)(=O)c1ccc(C(=O)Nc2ccc(Cl)c(-c3ccccn3)c2)c(Cl)c1 [vismodegib, reference compound]
[1]; vismodegib control in the same assay as the test compound of the line, read-out: Effect IC50 (nM)(GRE reporter assay: vismodegib)
  IC50: 13.4 nM and 17.9 nM and 19.3 nM
[1]; vismodegib control in the same assay as the test compound of the line, read-out: SMO IC50 (nM) (vismodegib)
  IC50: 26 nM
[2]; reference in the run of A-55 (8.8) and of A-97 (45), read-out: IC50 of reference vismodegib, reported in WO2014113191A1
  IC50: 8.8 nM and 45 nM

## Cc1cnc(-c2cc(N3CCc4nc(NC(=O)C(C)(C)C)ncc4[C@H]3C)ncc2Cl)c(C)c1 [Compound B6, (R)—N-(6-(5′-chloro-3,5-dimethyl-[2,4′-bipyridin]-2′-yl)-5-methyl-5,6,7,8-tetrahydropyrido[4,3-d]pyrimidin-2-yl)pivalamide]
[1]; [5]
  Ratio: 6.7
[1]; [6]
  IC50: 3.9 nM

## Cc1cnc(-c2cc(N3CCc4nc(N5CCC(O)CC5)ncc4C3=O)ncc2Cl)c(C)c1 [Compound A-97]
[2]; previous patent
  ratio to vismodegib (relative efficacy), WO2014113191A1: about 0.5 fold
[2]; previous patent, listed as A97
  ratio to vismodegib (relative efficacy), WO2014113191A1: 0.54 fold
[2]; [7]
  IC50: 84 nM

## CCC(=O)Nc1ncc2c(n1)CCN(c1cc(-c3ncc(C)cc3C)c(Cl)cn1)[C@@H]2C [Compound B5, (R)—N-(6-(5′-chloro-3,5-dimethyl-[2,4′-bipyridin]-2′-yl)-5-methyl-5,6,7,8-tetrahydropyrido[4,3-d]pyrimidin-2-yl)propionamide]
[1]; [5]
  Ratio: 0.35
[1]; [6]
  IC50: 75 nM

## Cc1cnc(-c2cc(N3CCc4nc(N5CCC(O)C5)ncc4C3C)ncc2Cl)c(C)c1 (stereo not shown) [D]
[1]; [5]
  Ratio: 3.2
[1]; [6]
  IC50: 4.2 nM

## Cc1cnc(-c2cc(N3CCc4nc(NCC5CC5)ncc4C3C)ncc2Cl)c(C)c1 (stereo not shown) [E]
[1]; [5]
  Ratio: 1.74
[1]; [6]
  IC50: 7.7 nM

## Cc1cnc(-c2cc(N3CCc4nc(N5CCC(O)CC5)ncc4C3)ncc2Cl)c(C)c1 [Compound A-55, reference compound]
[3]; I.V., 2 mg/kg
  AUC0-24 h: 1780 ng·h/mL
  CL: 18.6 mL/min/kg
  t1/2: 1 h
[3]; P.O., 10 mg/kg
  AUC0-24 h: 5540 ng·h/mL
[3]; male, Sprague-Dawley, plasma, intravenous injection, 2 mg/kg, read-out: Apparent volume of distribution Vd, ss
  Vd: 1.7 L/kg
[3]; male, Sprague-Dawley, plasma, intravenous injection, 2 mg/kg
  AUC(0-t): 1780 ng·h/mL
[3]; male, Sprague-Dawley, plasma, intravenous injection, 2 mg/kg, read-out: Clearance CL
  clearance: 18.6 mL/min/kg
[3]; male, Sprague-Dawley, plasma, intravenous injection, 2 mg/kg, read-out: Half-life t1/2 (converted)
  half-life: 1 h
[3]; male, Sprague-Dawley, plasma, oral, 10 mg/kg
  AUC(0-t): 5540 ng·h/mL
[3]; male, Sprague-Dawley, plasma, oral, 10 mg/kg, read-out: Maximum plasma concentration Cmax
  Cmax: 2180 ng/mL
[3]; male, Sprague-Dawley, plasma, oral, 10 mg/kg, read-out: Peak time Tmax
  Tmax: 0.5 h
[3]; male, Sprague-Dawley, plasma, 10 mg/kg, P.O. 10 mg/kg vs I.V. 2 mg/kg, read-out: F %
  bioavailability: 62%
[3]; male, Sprague-Dawley, plasma, 10 mg/kg, oral 10 mg/kg vs intravenous 2 mg/kg, read-out: Bioavailability F %
  bioavailability: 62%
[3]; male, Sprague-Dawley, plasma, 10 mg/kg, oral, read-out: bioavailability
  bioavailability: 62%
[2]; [7]
  IC50: 5.5 nM
[4]
  susceptibility to oxidative metabolism (in words): easy to metabolized via benzylic oxidation

## Cc1cnc(-c2cc(N3CCc4nc(NC5CC5)ncc4[C@@H]3C)ncc2Cl)c(C)c1 [Compound B3, (5 S)-6-[5-chloro-4-(3,5-dimethyl-2-pyridyl)-2-pyridyl]-N-cyclopropyl-5-methyl-7,8-dihydro-5H-pyrido[4,3-d]pyrimidin-2-amine]
[1]; [5]
  Ratio: 3.1
[1]; [6]
  IC50: 4 nM

## Cc1cnc(-c2cc(N3CCc4nc(N5CCC(O)CC5)ncc4[C@@H]3C)ncc2Cl)c(C)c1 [Compound B2, (S)-1-(6-(5′-chloro-3,5-dimethyl-[2,4′-bipyridin]-2′-yl)-5-methyl-5,6,7,8-tetrahydropyrido[4,3-d]pyrimidin-2-yl)piperidin-4-ol]
[1]
  Hh pathway inhibitory activity (in words): relatively poor
[1]; 48 h, 10 nM SAG as agonist, 48 hours, read-out: Effect IC50 (nM)(GRE reporter assay)
  IC50: 17 nM
[1]; IC50 of vismodegib over that of the tested compound in the same assay
  Ratio: 1.1
[1]; [5]
  Ratio: 1.1
[1]; [6]
  IC50: 17 nM

## Cc1cnc(-c2cc(N3CCc4nc(NC5CC5)ncc4C3C)ncc2Cl)c(C)c1 (stereo not shown) [F]
[1]; [5]
  Ratio: 4.5
[1]; [6]
  IC50: 4.4 nM

## Cc1cnc(-c2cc(N3CCc4nc(N5CCC(O)C5)ncc4C3=O)ncc2Cl)c(C)c1 (stereo not shown) [C]
[1]; [5]
  Ratio: 0.16
[1]; [6]
  IC50: 272 nM
